Results: patent EP0908457B1, “3-(1,2-benzisothiazol- and isoxazol-5-Y1)-2,4(1H,3H)-pyrimidinedione or thione and 3-(1,2-benzisothiazol- and isoxazol-5-y1)-4(3H)-pyrimidinone or thione herbicidal agents” (BASF AKTIENGESELLSCHAFT, priority 1997, dated 1999)

How the values were obtained:
Sagittaria pygmaea, L. = experiment: Preemergence weed control under flooded paddy conditions, SAGPY (Arrowhead (Pygmaea)); format: in vivo; conditions: flooded paddy, rated three to four weeks after treatment; for herbicidal effect rating, SAGPY: meaning of each grade not given here
[1] = test system: Echinochloa oryzoides (Ard.) Fritsch.; experiment: Preemergence weed control under flooded paddy conditions, ECHORC (Watergrass (Calif.)); format: in vivo; conditions: flooded paddy, rated three to four weeks after treatment; for herbicidal effect rating, ECHORC: meaning of each grade not given here
[2] = test system: Cyperus serotinus, Rottb.; experiment: Preemergence weed control under flooded paddy conditions, CYPSE (Flatsedge); format: in vivo; conditions: rated three to four weeks after treatment; for herbicidal effect rating, CYPSE: meaning of each grade not given here
Cyperus iria = experiment: Preemergence weed control under flooded paddy conditions, CYPIR (Rice Flatsedge); format: in vivo; conditions: flooded paddy, rated three to four weeks after treatment; for herbicidal effect rating, CYPIR: meaning of each grade not given here
[3] = test system: Monochoria vaginalis, Presl.; experiment: Preemergence weed control under flooded paddy conditions, MOOVA (Monochoria); format: in vivo; conditions: flooded paddy, rated three to four weeks after treatment; for herbicidal effect rating, MOOVA: meaning of each grade not given here
[4] = test system: Oryza sativa, (L.) Tebonnet; experiment: Rice tolerance to post-transplant applications under flooded paddy conditions (Example 187), ORYSAT (Rice, Tebonnet); conditions: rated three to four weeks after treatment
[5] = Rate 0.0313 kg/ha, preemergence
[6] = Rate 0.0625 kg/ha, preemergence
[7] = Rate 0.1250 kg/ha, preemergence
[8] = Rate 0.2500 kg/ha, preemergence
[9] = 0.0315 kg/ha, preemergence weeds
[10] = 0.0630 kg/ha, preemergence weeds
[11] = Rate 0.0320 kg/ha, preemergence weeds
[12] = Rate 0.0620 kg/ha, preemergence weeds
[13] = Rate 0.1250 kg/ha, preemergence weeds
[14] = Rate 0.2500 kg/ha, preemergence weeds

## C=C(C(=O)OC)C(C)OCc1nsc2ccc(-n3c(=O)cc(C(F)(F)F)n(C)c3=O)cc12 (stereo not drawn) [Example 212, Methyl 3-{{5-[3,6-dihydro-3-methyl-2,6-dioxo-4-(trifluoromethyl)-1(2H)-pyrimidinyl]-1,2-benzisothiazol-3-yl}methoxy}-2-methylenebutyrate]
Sagittaria pygmaea, L.; [5]
  SAGPY herbicidal effect rating: 0.0
Sagittaria pygmaea, L.; [6]
  SAGPY herbicidal effect rating: 0.0
Sagittaria pygmaea, L.; [7]
  SAGPY herbicidal effect rating: 0.0
Sagittaria pygmaea, L.; [8]
  SAGPY herbicidal effect rating: 0.0
[1]; [5]
  ECHORC herbicidal effect rating: 0.0
[1]; [6]
  ECHORC herbicidal effect rating: 0.0
[1]; [7]
  ECHORC herbicidal effect rating: 2.0
[1]; [8]
  ECHORC herbicidal effect rating: 4.0
[2]; [5]
  CYPSE herbicidal effect rating: 0.0
[2]; [6]
  CYPSE herbicidal effect rating: 0.0
[2]; [7]
  CYPSE herbicidal effect rating: 0.0
[2]; [8]
  CYPSE herbicidal effect rating: 0.0
Cyperus iria; [5]
  CYPIR herbicidal effect rating: 0.0
Cyperus iria; [6]
  CYPIR herbicidal effect rating: 0.0
Cyperus iria; [7]
  CYPIR herbicidal effect rating: 0.0
Cyperus iria; [8]
  CYPIR herbicidal effect rating: 2.0
[3]; [5]
  MOOVA herbicidal effect rating: 4.0
[3]; [6]
  MOOVA herbicidal effect rating: 8.0
[3]; [7]
  MOOVA herbicidal effect rating: 9.0
[3]; [8]
  MOOVA herbicidal effect rating: 9.0
[4]; Rate 0.0313 kg/ha
  ORYSAT herbicidal effect rating: 3.0
[4]; Rate 0.0625 kg/ha
  ORYSAT herbicidal effect rating: 4.0
[4]; Rate 0.1250 kg/ha
  ORYSAT herbicidal effect rating: 6.0
[4]; Rate 0.2500 kg/ha
  ORYSAT herbicidal effect rating: 7.0

## COC(=O)COc1noc2ccc(-n3c(=O)cc(C(F)(F)F)n(C)c3=O)cc12 [Example 22, Methyl {{5-[3,6-dihydro-3-methyl-2,6-dioxo-4-(trifluoromethyl)-1(2H)-pyrimidinyl]-1,2-benzisoxazol-3-yl}oxy}acetate]
Sagittaria pygmaea, L.; 0.0313 kg/ha, preemergence
  herbicidal effect rating, SAGPY: 0.0
Sagittaria pygmaea, L.; 0.0625 kg/ha, preemergence
  herbicidal effect rating, SAGPY: 2.0
Sagittaria pygmaea, L.; 0.1250 kg/ha, preemergence
  herbicidal effect rating, SAGPY: 4.0
Sagittaria pygmaea, L.; 0.2500 kg/ha, preemergence
  herbicidal effect rating, SAGPY: 9.0
[1]; 0.0313 kg/ha, preemergence
  herbicidal effect rating, ECHORC: 9.0
[1]; 0.0625 kg/ha, preemergence
  herbicidal effect rating, ECHORC: 9.0
[1]; 0.1250 kg/ha, preemergence
  herbicidal effect rating, ECHORC: 9.0
[1]; 0.2500 kg/ha, preemergence
  herbicidal effect rating, ECHORC: 9.0
[2]; 0.0313 kg/ha, preemergence
  herbicidal effect rating, CYPSE: 2.0
[2]; 0.0625 kg/ha, preemergence
  herbicidal effect rating, CYPSE: 7.0
[2]; 0.1250 kg/ha, preemergence
  herbicidal effect rating, CYPSE: 7.0
[2]; 0.2500 kg/ha, preemergence
  herbicidal effect rating, CYPSE: 9.0
Cyperus iria; 0.0313 kg/ha, preemergence
  herbicidal effect rating, CYPIR: 9.0
Cyperus iria; 0.0625 kg/ha, preemergence
  herbicidal effect rating, CYPIR: 9.0
Cyperus iria; 0.1250 kg/ha, preemergence
  herbicidal effect rating, CYPIR: 9.0
Cyperus iria; 0.2500 kg/ha, preemergence
  herbicidal effect rating, CYPIR: 9.0
[3]; 0.0313 kg/ha, preemergence
  herbicidal effect rating, MOOVA: 9.0
[3]; 0.0625 kg/ha, preemergence
  herbicidal effect rating, MOOVA: 9.0
[3]; 0.1250 kg/ha, preemergence
  herbicidal effect rating, MOOVA: 9.0
[3]; 0.2500 kg/ha, preemergence
  herbicidal effect rating, MOOVA: 9.0
[4]; 0.0313 kg/ha
  herbicidal effect rating, ORYSAT (rice tolerance): 2.0
[4]; 0.0625 kg/ha
  herbicidal effect rating, ORYSAT (rice tolerance): 2.0
[4]; 0.1250 kg/ha
  herbicidal effect rating, ORYSAT (rice tolerance): 2.5
[4]; 0.2500 kg/ha
  herbicidal effect rating, ORYSAT (rice tolerance): 2.5

## C=CC(C)OC(=O)COc1ccc(C)cc1-c1nsc2ccc(-n3c(=O)cc(C(F)(F)F)n(C)c3=O)cc12 (stereo not drawn) [Example 186, 1-Methylallyl {{2-{5-[3,6-dihydro-3-methyl-2,6-dioxo-4-(trifluoromethyl)-1(2H)-pyrimidinyl]-1,2-benzisothiazol-3-yl}-p-tolyl}oxy}acetate]
Sagittaria pygmaea, L.; [9]
  herbicidal effect rating, SAGPY: 9.0
Sagittaria pygmaea, L.; [10]
  herbicidal effect rating, SAGPY: 9.0
[1]; [9]
  herbicidal effect rating, ECHORC: 9.0
[1]; [10]
  herbicidal effect rating, ECHORC: 9.0
[2]; [9]
  herbicidal effect rating, CYPSE: 9.0
[2]; [10]
  herbicidal effect rating, CYPSE: 9.0
Cyperus iria; [9]
  herbicidal effect rating, CYPIR: 9.0
Cyperus iria; [10]
  herbicidal effect rating, CYPIR: 9.0
[3]; [9]
  herbicidal effect rating, MOOVA: 9.0
[3]; [10]
  herbicidal effect rating, MOOVA: 9.0
[4]; 0.0315 kg/ha
  herbicidal effect rating, ORYSAT (rice tolerance): 9.0
[4]; 0.0630 kg/ha
  herbicidal effect rating, ORYSAT (rice tolerance): 9.0

## Cn1c(C(F)(F)F)cc(=O)n(-c2ccc3snc(CCBr)c3c2)c1=O [Example 260, 2,4(1H,3H)-Pyrimidinedione, 3-[3-(2-bromoethyl)-1,2-benzisothiazol-5-yl]-1-methyl-6-(trifluoromethyl)-]
Sagittaria pygmaea, L.; [8]
  SAGPY herbicidal effect rating: 0.0
[1]; [8]
  ECHORC herbicidal effect rating: 0.0
[2]; [8]
  CYPSE herbicidal effect rating: 0.0
Cyperus iria; [8]
  CYPIR herbicidal effect rating: 0.0
[3]; [8]
  MOOVA herbicidal effect rating: 0.0
[4]; Rate 0.2500 kg/ha
  ORYSAT herbicidal effect rating: 0.0

## Cn1c(C(F)(F)F)cc(=O)n(-c2ccc3snc(CN=C=S)c3c2)c1=O [Example 311, Isothiocyanic acid, {5-[3,6-dihydro-3-methyl-2,6-dioxo-4-(trifluoromethyl)-1(2H)-pyrimidinyl]-1,2-benzisothiazol-3-yl}methyl ester]
Sagittaria pygmaea, L.; [11]
  herbicidal effect rating, SAGPY: 0.0
Sagittaria pygmaea, L.; [12]
  herbicidal effect rating, SAGPY: 0.0
Sagittaria pygmaea, L.; [13]
  herbicidal effect rating, SAGPY: 0.0
Sagittaria pygmaea, L.; [14]
  herbicidal effect rating, SAGPY: 0.0
[1]; [11]
  herbicidal effect rating, ECHORC: 0.0
[1]; [12]
  herbicidal effect rating, ECHORC: 0.0
[1]; [13]
  herbicidal effect rating, ECHORC: 0.0
[1]; [14]
  herbicidal effect rating, ECHORC: 0.0
[2]; [11]
  herbicidal effect rating, CYPSE: 0.0
[2]; [12]
  herbicidal effect rating, CYPSE: 0.0
[2]; [13]
  herbicidal effect rating, CYPSE: 0.0
[2]; [14]
  herbicidal effect rating, CYPSE: 0.0
Cyperus iria; [11]
  herbicidal effect rating, CYPIR: 0.0
Cyperus iria; [12]
  herbicidal effect rating, CYPIR: 9.0
Cyperus iria; [13]
  herbicidal effect rating, CYPIR: 9.0
Cyperus iria; [14]
  herbicidal effect rating, CYPIR: 9.0
[3]; [11]
  herbicidal effect rating, MOOVA: 0.0
[3]; [12]
  herbicidal effect rating, MOOVA: 9.0
[3]; [13]
  herbicidal effect rating, MOOVA: 9.0
[3]; [14]
  herbicidal effect rating, MOOVA: 9.0
[4]; Rate 0.0320 kg/ha
  herbicidal effect rating ORYSAT: 0.0
[4]; Rate 0.0620 kg/ha
  herbicidal effect rating ORYSAT: 0.0
[4]; Rate 0.1250 kg/ha
  herbicidal effect rating ORYSAT: 2.0
[4]; Rate 0.2500 kg/ha
  herbicidal effect rating ORYSAT: 2.0
